Data reported in ChEMBL document CHEMBL4476867, “Hydroxy formamide derivatives and their use” (2016).

Assays:
[1] = target: T1, Tolloid-like protein 2 (Homo sapiens, UniProt Q9Y6L7); assay: Inhibition of C-terminal Avi-6x-His epitope tagged and N-terminal human RAGE signal sequence tagged recombinant human TLL2 (26 to 1015 amino acids) expressed in CHOE1A cells incubated for 60 mins with promyostatin peptide substrate by FRET based assay; assay type: cell-based
T1 sequence (Q9Y6L7 whole entry): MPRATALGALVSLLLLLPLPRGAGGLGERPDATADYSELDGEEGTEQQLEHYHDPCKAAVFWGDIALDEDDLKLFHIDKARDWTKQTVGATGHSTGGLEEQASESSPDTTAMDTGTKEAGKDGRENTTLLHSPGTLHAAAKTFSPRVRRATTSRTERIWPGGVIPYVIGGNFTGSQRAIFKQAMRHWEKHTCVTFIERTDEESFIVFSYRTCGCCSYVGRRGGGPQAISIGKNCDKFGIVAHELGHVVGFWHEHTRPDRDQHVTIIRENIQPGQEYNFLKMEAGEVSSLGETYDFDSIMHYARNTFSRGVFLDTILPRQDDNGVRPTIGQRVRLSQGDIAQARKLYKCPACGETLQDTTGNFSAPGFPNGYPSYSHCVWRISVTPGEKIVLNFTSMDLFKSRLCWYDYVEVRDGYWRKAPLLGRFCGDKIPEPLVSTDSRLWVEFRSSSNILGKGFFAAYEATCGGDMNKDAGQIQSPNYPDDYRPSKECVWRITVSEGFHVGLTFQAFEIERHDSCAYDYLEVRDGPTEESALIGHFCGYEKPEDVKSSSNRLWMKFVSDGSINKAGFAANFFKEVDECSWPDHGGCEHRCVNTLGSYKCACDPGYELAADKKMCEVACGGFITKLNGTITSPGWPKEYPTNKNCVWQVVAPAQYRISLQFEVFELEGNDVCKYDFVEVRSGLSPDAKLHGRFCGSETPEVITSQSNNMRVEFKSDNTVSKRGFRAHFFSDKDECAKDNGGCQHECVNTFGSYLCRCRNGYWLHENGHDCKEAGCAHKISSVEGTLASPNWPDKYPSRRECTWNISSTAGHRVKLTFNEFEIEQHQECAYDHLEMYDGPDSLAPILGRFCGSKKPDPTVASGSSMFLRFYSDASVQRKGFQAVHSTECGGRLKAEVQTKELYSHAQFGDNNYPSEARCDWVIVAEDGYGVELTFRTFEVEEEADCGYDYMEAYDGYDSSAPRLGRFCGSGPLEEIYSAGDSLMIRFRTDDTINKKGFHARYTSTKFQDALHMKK

[2] = target: T2, Bone morphogenetic protein 1 (Homo sapiens, UniProt P13497); assay: Inhibition of C-terminal FLAG-6x-His epitope tagged and N-terminal human RAGE signal sequence tagged human BMP1 (23 to 721 amino acids) expressed in CHO-E1 cells pre-incubated for 10 mins before promyostatin peptide substrate addition and measured after 60 mins using 0.5 nM BMP1 by FRET based assay; assay type: cell-based
T2 sequence (P13497 whole entry): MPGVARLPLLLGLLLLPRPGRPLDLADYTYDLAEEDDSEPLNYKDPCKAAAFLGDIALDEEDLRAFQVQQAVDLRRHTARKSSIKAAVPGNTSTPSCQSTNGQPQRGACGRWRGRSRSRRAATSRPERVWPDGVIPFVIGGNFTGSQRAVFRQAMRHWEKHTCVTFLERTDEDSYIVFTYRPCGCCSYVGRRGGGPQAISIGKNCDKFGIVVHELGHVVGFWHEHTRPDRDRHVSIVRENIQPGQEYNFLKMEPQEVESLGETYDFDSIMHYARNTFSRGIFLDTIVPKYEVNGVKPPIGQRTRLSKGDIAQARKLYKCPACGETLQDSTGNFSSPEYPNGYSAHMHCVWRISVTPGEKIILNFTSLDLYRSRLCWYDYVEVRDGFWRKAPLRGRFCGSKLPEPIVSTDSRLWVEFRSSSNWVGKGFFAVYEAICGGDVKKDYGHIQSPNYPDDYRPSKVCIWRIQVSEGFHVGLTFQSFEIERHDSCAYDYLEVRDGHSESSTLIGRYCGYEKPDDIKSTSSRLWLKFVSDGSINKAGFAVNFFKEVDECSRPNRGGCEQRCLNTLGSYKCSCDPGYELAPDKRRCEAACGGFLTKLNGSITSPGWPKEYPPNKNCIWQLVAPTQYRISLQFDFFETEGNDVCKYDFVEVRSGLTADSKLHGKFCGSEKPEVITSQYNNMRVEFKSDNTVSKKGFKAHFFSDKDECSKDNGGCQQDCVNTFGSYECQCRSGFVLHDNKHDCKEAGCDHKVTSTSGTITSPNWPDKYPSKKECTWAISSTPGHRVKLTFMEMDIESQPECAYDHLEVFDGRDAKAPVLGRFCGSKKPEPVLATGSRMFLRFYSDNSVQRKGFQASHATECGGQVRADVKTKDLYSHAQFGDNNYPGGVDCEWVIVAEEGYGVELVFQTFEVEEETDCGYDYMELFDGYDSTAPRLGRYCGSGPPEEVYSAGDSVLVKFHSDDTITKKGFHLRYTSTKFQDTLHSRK

[3] = Reduction in PICP levels in human cardiac fibroblasts incubated for 24 to 48 hrs by ELISA; assay type: functional
In short: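 Human cardiac fibroblasts at passage 6 or below were plated in 96-well plates at 10,000 to 15,000 cells per well. On the following day, cells were treated for 24 to 48 hr at 37° C in ficoll crowding EMEM containing 100 μM ascorbic acid, with DMSO kept under 0.3%. A Quidel ELISA measured procollagen I C-terminal propeptide released into the medium, and IC50 values were derived in GraphPad Prism by fitting levels, expressed relative to untreated controls, to a log(inhibitor)-response equation.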

[4] = target: T2, Bone morphogenetic protein 1; assay: Inhibition of C-terminal FLAG-6x-His epitope tagged and N-terminal human RAGE signal sequence tagged human BMP1 (23 to 721 amino acids) expressed in CHO-E1 cells pre-incubated for 10 mins before promyostatin peptide substrate addition and measured after 30 mins using 50 nM BMP1 by FRET based assay; assay type: cell-based
[5] = target: Tolloid-like protein 1 (Homo sapiens, UniProt O43897, I156V/N221S/V284A); assay: Inhibition of recombinant human TLL1 I156V/N221S/V284A mutant expressed in CHOE1A cells pre-incubated for 10 mins before promyostatin peptide substrate addition and measured after 60 mins by FRET based assay; assay type: cell-based
Sequence of Tolloid-like protein 1 (O43897 148-1013 I156V/N221S/V284A limits assumed): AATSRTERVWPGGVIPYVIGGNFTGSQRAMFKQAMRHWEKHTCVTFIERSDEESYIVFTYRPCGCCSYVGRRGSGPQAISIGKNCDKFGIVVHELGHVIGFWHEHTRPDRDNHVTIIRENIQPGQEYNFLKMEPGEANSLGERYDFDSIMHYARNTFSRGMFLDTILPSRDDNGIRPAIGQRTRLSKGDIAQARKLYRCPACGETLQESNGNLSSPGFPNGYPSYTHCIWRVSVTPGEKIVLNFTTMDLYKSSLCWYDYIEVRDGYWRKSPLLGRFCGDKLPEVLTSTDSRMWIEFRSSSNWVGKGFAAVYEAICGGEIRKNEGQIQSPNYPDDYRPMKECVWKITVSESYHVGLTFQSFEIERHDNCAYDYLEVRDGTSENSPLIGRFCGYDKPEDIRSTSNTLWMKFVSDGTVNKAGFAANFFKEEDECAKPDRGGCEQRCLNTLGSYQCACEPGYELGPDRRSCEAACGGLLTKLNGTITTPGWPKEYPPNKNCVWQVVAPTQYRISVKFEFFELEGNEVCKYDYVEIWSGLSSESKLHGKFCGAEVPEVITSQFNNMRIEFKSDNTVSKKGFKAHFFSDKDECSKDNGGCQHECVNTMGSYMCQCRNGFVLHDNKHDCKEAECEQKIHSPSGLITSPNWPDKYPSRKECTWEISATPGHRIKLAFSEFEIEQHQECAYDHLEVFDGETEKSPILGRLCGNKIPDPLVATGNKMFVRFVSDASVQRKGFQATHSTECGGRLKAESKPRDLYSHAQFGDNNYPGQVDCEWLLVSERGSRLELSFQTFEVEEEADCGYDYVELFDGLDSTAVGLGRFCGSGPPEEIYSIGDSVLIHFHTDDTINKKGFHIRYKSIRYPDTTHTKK

Row | SMILES | IC50 [1] [nM] | IC50 [2] [nM] | IC50 [3] [nM] | IC50 [4] [nM] | IC50 [5] [nM]
1 | CCCCC[C@H](CN(O)C=O)C(=O)NCNC(=O)c1ccc(-c2cccc(OCC)c2)o1 | < 794 | < 126 | < 3980 | < 200 | < 398
2 | CCCCC[C@@H](C(=O)NCNC(=O)c1ccc(-c2ccc(C(=O)O)c(OCC)c2)o1)[C@@H](CC)N(O)C=O | < 794 | < 126 | < 3980 | < 200 | < 398
3 | CCCCC[C@@H](C(=O)NCNC(=O)c1ccc(-c2ccc(CC(=O)O)c(OCC)c2)o1)[C@@H](CC)N(O)C=O | < 794 | < 126 | < 3980 | < 200 | < 398
4 | CCCCC[C@H](CN(O)C=O)C(=O)NCNC(=O)c1ccc(-c2cccc(OCC(F)(F)F)c2)o1 | < 794 | < 126 | < 3980 | < 200 | < 398
5 | CCCCC[C@@H](C(=O)NCNC(=O)c1ccc(-c2ccc(C3(C(=O)O)CC3)cc2)o1)[C@@H](CC)N(O)C=O | < 794 | < 126 | < 3980 | < 200 | < 398
6 | CCCCC[C@@H](C(=O)NCNC(=O)c1ccc(-c2ccc(C(C)(C)C(=O)O)cc2)o1)[C@@H](CC)N(O)C=O | < 794 | < 126 | < 3980 | < 200 | < 398
7 | CCCCC[C@H](CN(O)C=O)C(=O)NCNC(=O)c1ccc(-c2cccc(N(C)C)c2)o1 | < 794 | < 126 | < 3980 | < 200 | < 398
8 | CCCCC[C@@H](C(=O)NCNC(=O)c1ccc(-c2cc(CC(=O)O)cc(OCC)c2)o1)[C@@H](CC)N(O)C=O |  | < 126 | < 3980 | < 200 | 
9 | CCCCC[C@@H](C(=O)NCNC(=O)c1ccc(-c2ccc(CC(=O)O)cc2)o1)[C@@H](CC)N(O)C=O | < 794 | < 126 | < 3980 | < 200 | < 398
10 | CCCCC[C@H](CN(O)C=O)C(=O)NCNC(=O)c1ccc(-c2cccc(OC(C)C)c2)o1 |  | < 126 | < 3980 | < 200 | < 398
11 | CCCCC[C@H](CN(O)C=O)C(=O)NCNC(=O)c1ccc(-c2cccc(OC(F)F)c2)o1 | < 794 | < 126 | < 3980 | < 200 | < 398
12 | CCCCC[C@@H](C(=O)NCNC(=O)c1ccc(-c2cc(OCC)cc(C(=O)NCC(=O)O)c2)o1)[C@@H](CC)N(O)C=O |  | < 126 | < 3980 | < 200 | 
13 | CCCCC[C@H](CN(O)C=O)C(=O)NCNC(=O)c1ccc(-c2cc(OC)ccn2)o1 | < 794 | < 126 | < 3980 | < 200 | < 398
14 | CCCCC[C@H](CN(O)C=O)C(=O)NCNC(=O)c1ccc(-c2cc(OCC)cc(C(=O)OC)c2)o1 | < 794 | < 126 | < 3980 | < 200 | < 398
15 | CCCCC[C@H](CN(O)C=O)C(=O)NCNC(=O)c1ccc(-c2cccc(OC(F)(F)F)c2)o1 | < 794 | < 126 | < 3980 | < 200 | < 398
16 | CCCCC[C@H](CN(O)C=O)C(=O)NCNC(=O)c1ccc(-c2cccc(C(=O)OC)c2)o1 | < 794 | < 126 | < 3980 | < 200 | < 398
17 | CCCCC[C@@H](C(=O)NCNC(=O)c1ccc(-c2cc(OCC)cc(C(=O)N[C@@H](CCC(=O)O)C(=O)OC(C)(C)C)c2)o1)[C@@H](CC)N(O)C=O | < 794 | < 126 | < 3980 | < 200 | < 398
18 | CCCCC[C@H](CN(O)C=O)C(=O)NCNC(=O)c1ccc(-c2cc(OCC)cc(C(=O)NCCN)c2)o1 |  | < 126 | < 3980 | < 200 | 
19 | CCCCC[C@H](CN(O)C=O)C(=O)NCNC(=O)c1ccc(-c2cccc(S(=O)(=O)NC(=O)CC)c2)o1 | < 794 | < 126 | < 3980 | < 200 | < 398
20 | CCCCC[C@@H](C(=O)NCNC(=O)c1ccc(-c2cc(OCC)cc(C(=O)N[C@@H](CCC(=O)OC)C(=O)OC)c2)o1)[C@@H](CC)N(O)C=O | < 794 | < 126 | < 3980 | < 200 | < 398
21 | CCCCC[C@H](CN(O)C=O)C(=O)NCNC(=O)c1ccc(-c2cc(OCC)cc(C(=O)O)c2)o1 | < 794 | < 126 | < 3980 | < 200 | < 398
22 | CCCCC[C@H](CN(O)C=O)C(=O)NCNC(=O)c1ccc(-c2cccc(S(=O)(=O)NC)c2)o1 | < 794 | < 126 | < 3980 | < 200 | < 398
23 | CCCCC[C@H](CN(O)C=O)C(=O)NCNC(=O)c1ccc(-c2cccc(S(N)(=O)=O)c2)o1 | < 794 | < 126 | < 3980 | < 200 | < 398
24 | CCCCC[C@H](CN(O)C=O)C(=O)NCNC(=O)c1ccc(-c2cc(OC)cc(C(=O)O)c2)o1 | < 794 | < 126 | < 3980 | < 200 | < 398
25 | CCCCC[C@H](CN(O)C=O)C(=O)NCNC(=O)c1ccc(-c2cc(OC)cc(C(=O)NCCN)c2)o1 | < 794 | < 126 | < 3980 | < 200 | < 398
26 | CCCCC[C@@H](C(=O)NCNC(=O)c1ccc(-c2cc(OCC)cc(C(=O)NCCN)c2)o1)[C@@H](CC)N(O)C=O | < 794 | < 126 | < 3980 | < 200 | < 398
27 | CCOc1cc(-c2ccc(C(=O)NCNC(=O)[C@H](CCc3ccc4ccccc4c3)[C@@H](CC)N(O)C=O)o2)cc(P(=O)(O)O)c1 |  | < 126 | < 3980 | < 200 | 
